Square brackets hold non-standard residues; d marks the D form. Peptide text beside a SMILES is read from it.

From ChEMBL document CHEMBL1132332, “A novel acetylated analogue of dynorphin A-(1-11) amide as a kappa-opioid receptor antagonist” (J Med Chem, 1999) come the findings set out here.

The target in experiment [1] is Kappa-type opioid receptor (Homo sapiens, UniProt P41145). The experiment can be described thus: The compound was tested for binding affinity against Opioid receptor kappa 1 by using [3H]Diprenorphine as a radioligand.
Chain of Kappa-type opioid receptor (P41145 whole entry): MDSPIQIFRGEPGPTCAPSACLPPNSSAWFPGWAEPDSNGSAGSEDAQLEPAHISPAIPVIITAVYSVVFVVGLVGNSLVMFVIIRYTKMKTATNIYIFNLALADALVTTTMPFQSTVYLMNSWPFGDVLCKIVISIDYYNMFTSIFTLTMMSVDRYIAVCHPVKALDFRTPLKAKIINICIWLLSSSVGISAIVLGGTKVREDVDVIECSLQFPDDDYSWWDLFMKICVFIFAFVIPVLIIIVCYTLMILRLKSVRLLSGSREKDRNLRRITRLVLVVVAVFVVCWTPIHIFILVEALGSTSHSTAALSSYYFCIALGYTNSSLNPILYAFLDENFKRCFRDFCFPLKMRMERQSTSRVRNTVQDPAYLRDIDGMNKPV
Experiment [2] has as its target Mu-type opioid receptor (Homo sapiens, UniProt P35372). As to the kind of experiment: The compound was tested for binding affinity against Opioid receptor mu 1 by using [3H]DAMGO as a radioligand.
The target in experiment [3] is Delta-type opioid receptor (Homo sapiens, UniProt P41143). As to the kind of experiment: The compound was tested for binding affinity against Opioid receptor delta 1 by using [3H]- DPDPE as a radioligand.
Chain of Delta-type opioid receptor (P41143 whole entry): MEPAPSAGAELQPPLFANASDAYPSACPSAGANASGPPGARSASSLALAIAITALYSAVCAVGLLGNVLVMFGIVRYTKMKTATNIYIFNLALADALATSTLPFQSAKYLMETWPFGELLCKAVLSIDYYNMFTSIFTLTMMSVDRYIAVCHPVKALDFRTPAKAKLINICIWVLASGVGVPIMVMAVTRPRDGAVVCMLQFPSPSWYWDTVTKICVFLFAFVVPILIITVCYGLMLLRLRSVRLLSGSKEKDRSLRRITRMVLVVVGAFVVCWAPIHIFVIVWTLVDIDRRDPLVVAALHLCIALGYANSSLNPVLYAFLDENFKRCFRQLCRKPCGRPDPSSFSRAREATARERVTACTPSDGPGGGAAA

Chain of Mu-type opioid receptor (P35372 whole entry): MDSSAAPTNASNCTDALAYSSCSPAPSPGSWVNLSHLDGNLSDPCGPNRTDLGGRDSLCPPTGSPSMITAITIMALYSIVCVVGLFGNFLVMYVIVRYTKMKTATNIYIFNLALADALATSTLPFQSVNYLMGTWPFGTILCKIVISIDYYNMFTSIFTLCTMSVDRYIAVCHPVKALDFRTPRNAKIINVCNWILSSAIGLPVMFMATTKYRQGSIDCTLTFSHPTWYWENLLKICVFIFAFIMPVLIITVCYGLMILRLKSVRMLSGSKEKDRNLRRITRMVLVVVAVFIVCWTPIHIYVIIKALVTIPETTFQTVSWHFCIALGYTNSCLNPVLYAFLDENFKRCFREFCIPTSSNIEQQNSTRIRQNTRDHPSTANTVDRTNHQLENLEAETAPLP

As to `CC(C)C[C@H](NC(=O)[C@H](Cc1ccccc1)NC(=O)CNC(=O)CNC(=O)[C@@H](N)Cc1ccc(O)cc1)C(=O)N[C@@H](CCCN=C(N)N)C(=O)N[C@@H](CCCN=C(N)N)C(=O)N[C@H](C)C(=O)N[C@@H](CCCN=C(N)N)C(=O)N1CCC[C@H]1C(=O)N[C@@H](CCCCN)C(N)=O`, the Ki (usually a dissociation constant, usually derived from enzyme kinetics or from competition with a known ligand) in experiment [1] stood at 0.00019 µM; in experiment [2] it was 0.00197 µM; in experiment [3] it was 0.0122 µM.
For `CC(=O)N[C@@H](Cc1ccc(O)cc1)C(=O)N[C@@H](CCCCN)C(=O)N[C@@H](Cc1c[nH]c2ccccc12)C(=O)N[C@@H](Cc1c[nH]c2ccccc12)C(N)=O` (Ac-YKWW-NH2) the same measures were 1.37 µM, 3.59 µM and 3.48 µM.
Consider `CC(=O)N[C@@H](Cc1ccc(O)cc1)C(=O)N[C@@H](CCCCN)C(=O)N[C@@H](Cc1c[nH]c2ccccc12)C(=O)N[C@@H](Cc1c[nH]c2ccccc12)C(=O)N[C@@H](CC(C)C)C(=O)N[C@@H](CCCN=C(N)N)C(=O)N[C@@H](CCCN=C(N)N)C(=O)N[C@H](C)C(=O)N[C@@H](CCCN=C(N)N)C(=O)N1CCC[C@H]1C(=O)N[C@@H](CCCCN)C(N)=O` (Ac-YKWWLRR[dA]RPK-NH2), for which the Ki in experiment [1] came to 0.0198 µM; in experiment [2], 0.251 µM; in experiment [3], 5.32 µM.
